Laboratory results taken from patent US20150034084A1, “[…] NITRIC OXIDE FOR TREATING RESPIRATORY DISEASES” (Advanced Inhalation Therapies (AIT) Ltd., priority 2012, published 2015).

Assays:
[1] = Phase I open label safety study of intermittent 160 ppm gNO inhalation: adverse events, vital signs, oxygenation; assay type: in vivo, human
From the text: 10 healthy adult volunteer subjects (5 males, 5 females), aged 20 to 62 years, were enrolled in the study after screening their medical history, a physical examination, pulmonary function tests and blood values. Exclusion criteria included individuals less than 19 years of age, pregnant females and unwilling to practice birth control during the study, diagnosed with pulmonary disease, epistaxis, hemoptysis, methemoglobinemia, organ transplant recipient or receiving antibiotic therapy.
After obtaining informed consent, treatment was initiated within 5 days of enrollment. Subjects were housed in a hospital ward and received 160 ppm gNO for 30 minutes every four hours (Q4h), five times a day, for five consecutive days by inhalation. Subjects returned for follow-up evaluations 3, 7 and 21 days after the final gNO administration. Subject safety was determined by monitoring vital signs, methemoglobin levels, lung function, blood chemistry, hematology, prothrombin time, inflammatory cytokine/chemokines levels and endothelial activation. These parameters were compared to baseline and at various time-points during and after gNO administration.
Subjects were administered gNO through a modified disposable mouthpiece to maximize mixing. Inspiration was spontaneously initiated by the subject from a conventional intermittent positive pressure breathing respirator (Mark-7, Carefusion, USA) in fixed flow mode delivering 48 liters per minute (LPM). Flows of gas were verified with a calibrated mass flow meter (TSI, USA). Gaseous nitric oxide (gNO, obtained at INOmax, Ikaria, USA) at a concentration of 800 ppm delivered at a flow of 12 LPM was titrated into a distal delivery port on the mouth piece connected to the respirator during inspiratory phase only (pressure switch). The Mark 7 respirator was supplied by an air/oxygen blender (Bird Sentry, Carefusion, USA) set to deliver 26% oxygen.
General medical examinations were performed by a pulmonary physician on screening and on days 8, 12 and 26 to obtain oxygenation and vital sign measurements. Abbreviated physical examination by a registered nurse was carried out each day prior to initiation of treatments on days 1-5. Oxygenation was measured with a pulse oximeter (Rad 57, Masimo Corporation, USA) which was used according to manufacturer's guidelines to measure functional oxygen saturation of arterial hemoglobin (SpO2) and heart rate. These parameters were measured continuously during every gNO administration and for 3.5 hours after the first treatment of the day. Cardiovascular status was determined by monitoring heart rate, blood pressure, respiratory rate and temperature. Values were recorded prior to the start of each gNO administration, following a 5 minute rest. During treatments, vital signs (except temperature) were also performed 15 minutes after the start of the treatment and at the end of gNO administration and recorded. After the first treatment each day, vital signs were recorded at every 30 minutes until the start of the second gNO administration of the day.

[2] = tested on: all microorganisms tested; assay: Bactericidal effect of 200 ppm gNO, whole panel of microbes (average / all tested); assay type: cell-based; conditions: saline, average over the bacteria of Table 1
From the text: A similar procedure was used to determine the time required to induce an effective bactericidal effect with 200 parts per million gNO, a concentration just above the dose used in the dose-ranging study presented hereinabove, on a representative collection of drug resistant gram-positive and gram-negative strains of bacteria associated with clinical infection.
A successful bactericidal effect was defined as a decrease in bacteria greater than 3 log10 CFU/mL. Further, C. albicans, Methicillin Resistant S. aureus (MRSA), a particularly resistant strain of P. aeruginosa from a cystic fibrosis patient, Group B Streptococcus, and M. smegmatis were also included to evaluate if yeasts, a multi-drug resistant strain of bacteria and actinomycetes have a similar response. These bacteria represent a comprehensive variety of drug resistant bacterial pathogens that contribute to both respiratory and wound infections. The results from these studies laid the foundation for use of gNO at a concentration higher than 160 ppm as an antibacterial agent, specifically for use against bacteria associated with clinical infections.
For this study, saline was selected as a suspension media because it would not mask the direct effect of gNO as a bactericidal, whereas fully supplemented growth medium might introduce external variables (e.g., buffer or react with gNO). Other media might also provide metabolites and replenish nutrients that produce enzymes that protect bacteria from oxidative and nitrosative damage, thereby masking the effect of gNO. […] In saline, the colonies were static but remained viable. These conditions are similar to the approach previously used in animal models.
Without exception, every bacteria challenged with 200 ppm gNO had at least a 3 log10 reduction in CFU/mL. […] The latent period was then followed by an abrupt death of all cells; gram negative and gram positive bacteria, antibiotic resistant bacterial strains, yeast and mycobacteria all were susceptible to 200 ppm gNO. […]

[3] = 160 ppm gNO 30 min, 5 times a day, 5 days, 10 healthy adults
[4] = during or after gNO administration, 160 ppm

## [N]=O [gNO, nitric oxide]
[1]; [3]
  minor adverse events reported: Three minor adverse events were reported
  significant adverse events: no significant adverse events were observed
[1]; 160 ppm gNO 30 min, 5 times a day, 5 days, 10 healthy adults, 250 administrations
  tolerability of treatments: All treatments were well tolerated
[1]; 160 ppm gNO intermittent inhalation
  lowest observed SpO2: 93%
[1]; 160 ppm gNO, not significant statistically nor clinically
  SpO2 levels over time, pretreatment vs post treatment: decreased slightly
[1]; during and after gNO administration, 160 ppm
  vital signs: all vital signs remained within normal limits
[1]; [4]
  blood pressure: no drop in blood pressure
  incidences of hypoxemia (less than 85% SpO2): No sudden incidences of hypoxemia
[2]
  LD100, Average: 4.77 h
  Latent Period, Average: 2.77 h
  −2.5 Log10, Average: 3.82 hours
